This is an account of results in ChEMBL document CHEMBL1201862, “PubChem BioAssay data set” (2004).

Each structure is given as a SMILES string.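 Interpolation was linear, between the two tested concentrations surrounding the appropriate level; five concentrations were tested over 48 hours in 96-well plates. GI50 is the concentration that inhibits growth by half.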 The source made the active and inactive calls. Rule as the data show it: active = GI50 up to about 1.1 µM and inactive = higher.

Common to all, as to experiment: NCI-60 cell line screen, 48 h
For test [1], the system named is CAKI-1.
Test [2] deals with KM12.
Test [3] relates to A498.
The subject of test [4] is OVCAR-5.
Test [5] concerns TK-10.
Test [6] has as its system SK-MEL-5.
The subject of test [7] is 786-0.
The subject of test [8] is KM-20L2.
Test [9] has as its system HOP-62.
Test [10] has as its system HCT-116.
Test [11] deals with SNB-78.
The subject of test [12] is SN12C.
For test [13], the system named is K562.
The subject of test [14] is RPMI-8226.
Test [15] concerns NCI-H460.
Test [16] concerns HCT-15.
Test [17] has as its system ACHN.
Test [18] relates to IGROV-1.
In test [19] the test system is MDA-N.
Test [20] has as its system MDA-MB-435.

Regarding `COc1cc2c3c(c1OC)C(=O)C=C3N(S(=O)(=O)c1ccc(C)cc1)CC2`, the GI50 is 52.6 µM (inactive) in test [1]; > 100 µM (inactive) in test [2]; > 100 µM (inactive) in test [3]; > 100 µM (inactive) in [4]; > 100 µM (inactive) in [5]; > 100 µM (inactive) in test [6]. Besides, the GI50 is 21.3 µM (inactive) in test [7]; > 100 µM (inactive) in test [8]; 64.3 µM (inactive) in test [9]; > 100 µM (inactive) in [10]; > 100 µM (inactive) in [11]; > 100 µM (inactive) in test [12]. Besides, the GI50 in test [13] was > 100 µM (inactive); in test [14] it was > 100 µM (inactive); in [15] it was > 100 µM (inactive); in [16], over 100 µM; in [17], 75.9 µM (inactive); in test [18], > 100 µM (inactive).
`Cc1ccc(NC(=O)CCc2nnc(N)o2)cc1`: the GI50 in [1], in test [2], in test [3], in test [4], in test [5] and in test [6] was > 100 µM (inactive) throughout. The GI50 in [7], in test [8], in test [9], in [10], in test [11] and in test [12] was > 100 µM (inactive) in each case. The GI50 was > 75.7 µM (inactive) in test [13]; > 100 µM (inactive) in test [14]; > 100 µM (inactive) in test [15]; over 100 µM in test [16]; > 100 µM (inactive) in test [17]; > 100 µM (inactive) in [18].
On to `C#CCSc1nc(N)c2ncn(C3OC(COP(=O)(O)O)C(O)C3O)c2n1` (configuration not stated), for which the GI50 in test [1], in test [2], in [3], in [4], in [5] and in test [6] was > 239 µM (inactive) in each case. Further, the GI50 in test [7], in [8], in test [9], in test [10], in test [11] and in test [12] was > 239 µM (inactive) each time. Further, the GI50 in test [13] was > 239 µM (inactive); in test [14], > 239 µM (inactive); in [15] it was > 239 µM (inactive); in [16] it was over 239 µM; in [17], > 239 µM (inactive); in test [18], > 239 µM (inactive).
As to `CCOC(=O)C1=C(O)C(=O)c2cc(OC)ccc2C1=O`, the GI50 was > 100 µM (inactive) in [1]; > 100 µM (inactive) in test [2]; > 100 µM (inactive) in test [3]; > 100 µM (inactive) in test [4]; > 100 µM (inactive) in test [5]; 49.1 µM (inactive) in test [6]. For the same molecule, the GI50 was > 100 µM (inactive) in test [7]; > 100 µM (inactive) in [8]; > 100 µM (inactive) in test [9]; 95.5 µM (inactive) in [10]; > 100 µM (inactive) in [11]; > 100 µM (inactive) in [12]. Further, the GI50 in [13] is > 100 µM (inactive); in test [14], > 100 µM (inactive); in test [15], > 100 µM (inactive); in test [16], over 100 µM; in test [17] it was > 100 µM (inactive); in [18] it was > 100 µM (inactive).
For `Nc1ncnc2c1ncn2C1OC(CSC(F)F)C(O)C1O` (configuration not stated), the GI50 in [1], in test [2], in test [3], in test [4], in [5] and in test [6] was > 100 µM (inactive) each time. The GI50 in [7], in test [8], in test [9], in test [10], in test [11] and in test [12] was > 100 µM (inactive) throughout. In addition, the GI50 in test [13] is > 100 µM (inactive); in test [14] it was > 100 µM (inactive); in test [15], > 100 µM (inactive); in [16], over 100 µM; in test [17], > 100 µM (inactive); in test [18] it was > 100 µM (inactive).
Consider `C[N+]1(C)C/C(=C\c2ccc(O)cc2)C(=O)/C(=C/c2ccc(O)cc2)C1`, for which the GI50 was > 100 µM (inactive) in test [1]; 45.1 µM (inactive) in [2]; 85.1 µM (inactive) in test [3]; > 100 µM (inactive) in test [4]; 18 µM (inactive) in [5]; > 100 µM (inactive) in [6]. Besides, the GI50 was > 100 µM (inactive) in [7]; 61.4 µM (inactive) in [8]; > 100 µM (inactive) in [9]; 34 µM (inactive) in [10]; > 100 µM (inactive) in [11]; 18.5 µM (inactive) in test [12]. In addition, the GI50 is 44.7 µM (inactive) in [14]; 29 µM (inactive) in [15]; 60.1 µM in test [16]; > 100 µM (inactive) in [17]; > 100 µM (inactive) in [18].
Consider `Cc1c(C(=O)c2ccccc2C(=O)O)c2ccccc2n1C`, for which the GI50 in [1], in [2], in test [3], in test [4], in [5] and in test [6] was > 100 µM (inactive) in each case. In addition, the GI50 in test [7], in test [8], in [9], in test [10], in test [11] and in test [13] was > 100 µM (inactive) each time. Further, the GI50 in [14] is > 100 µM (inactive); in test [15], > 100 µM (inactive); in test [16], over 100 µM; in [17] it was > 100 µM (inactive); in test [18], > 100 µM (inactive).
In the case of `CC(C)N(C(=O)C12C3C4C1C1C4(C#N)C3C12C(=O)O)C(C)C` (configuration not stated), the GI50 in [1], in test [2], in test [3], in [4], in [5] and in test [6] was > 100 µM (inactive) throughout. The GI50 in [7] is > 100 µM (inactive); in [8], > 100 µM (inactive); in test [9] it was > 100 µM (inactive); in [10], > 52.8 µM (inactive); in [11], > 100 µM (inactive); in [12], > 100 µM (inactive). In addition, the GI50 in [13] is > 69.8 µM (inactive); in [14] it was > 43.1 µM (inactive); in test [15], > 67.3 µM (inactive); in [16] it was over 44.7 µM; in test [17] it was > 100 µM (inactive); in test [18], > 100 µM (inactive).
Turning to `C[C@H]1[C@H](C)CC[C@]2(C(=O)O)CCC3(COC(=O)/C=C/c4ccc(O)cc4)C(=CCC4[C@@]5(C)CC[C@H](O)C(C)(C)C5CC[C@]43C)[C@H]12` (some centres not stated), the GI50 was 2.85 µM (inactive) in [1]; 3.47 µM (inactive) in [2]; 4.06 µM (inactive) in [3]; 14.8 µM (inactive) in test [4]; 10.5 µM (inactive) in [5]; 11 µM (inactive) in test [6]. The GI50 in test [7] was 5.16 µM (inactive); in test [8], 4.83 µM (inactive); in test [9] it was 7.82 µM (inactive); in [10], 3.62 µM (inactive); in [11], 43.8 µM (inactive); in [12], 5.68 µM (inactive). In addition, the GI50 is 2.86 µM (inactive) in test [13]; 5.05 µM (inactive) in test [14]; 3.09 µM (inactive) in test [15]; 4.62 µM in test [16]; 2.69 µM (inactive) in test [17]; 3.46 µM (inactive) in test [18].
With `CC(=O)OC1C[C@H]2C(OC(=O)c3ccccc3)C3C4(OC(C)=O)COC4C[C@H](OC(C)=O)[C@@]3(C)C(OC(C)=O)[C@H](OC(C)=O)C(=C1C)C2(C)C` (some centres not stated), the GI50 in test [1] was 13.5 µM (inactive); in test [2], 59.4 µM (inactive); in [3], 24.4 µM (inactive); in test [4] it was > 100 µM (inactive); in test [5] it was 25.7 µM (inactive); in [6], 26.3 µM (inactive). The GI50 in test [7] was 35.9 µM (inactive); in [8], 59 µM (inactive); in test [9], 40 µM (inactive); in test [10] it was 40 µM (inactive); in [11], 37.9 µM (inactive); in test [12], 51.2 µM (inactive). For the same molecule, the GI50 was 23.8 µM (inactive) in test [13]; 20.4 µM (inactive) in test [14]; 35.5 µM (inactive) in test [15]; 47 µM in [16]; 21 µM (inactive) in test [17]; 41.8 µM (inactive) in [18].
With `C/C(=N\NC(=S)N1CCCCCC1)c1ccccn1`, the GI50 is 0.0162 µM (active) in test [1]; 0.0258 µM (active) in test [2]; 0.42 µM (active) in test [19]; 0.697 µM (active) in test [3]; 0.897 µM (active) in test [4]; 0.573 µM (active) in test [5]. Also, the GI50 in test [6] was 0.00805 µM (active); in test [20] it was 0.601 µM (active); in test [7], 0.0352 µM (active); in [8], < 0.001 µM (active); in test [9], 0.075 µM (active); in test [10] it was 0.00207 µM (active). The GI50 is 0.741 µM (active) in test [11]; 0.548 µM (active) in test [12]; 0.00288 µM (active) in test [13]; 0.00405 µM (active) in test [14]; 0.0164 µM (active) in [15]; 0.00405 µM (active) in [17]. For the same molecule, the GI50 in test [18] was 0.00162 µM (active).
